# Measured values: patent publication US6838560B1, “Process for manufacturing morpholino-nucleotides, and use thereof for the analysis of and labelling of nucleic acid sequences” (priority 1999, dated 2005)
# What was measured:
# Format in all cases: biochemical
# [1] = biological target: T1, Klenow exonuclease-free polymerase (Escherichia coli, UniProt P00582, D355A/E357A); experiment: Template-dependent 3' labelling / primer A extension, polyacrylamide gel; details: for enzymatic incorporation at 3' end of primer A: MATPP 400, 200, 50 μM, MATPPF 2.5 mM, 400, 200, 50 μM, 37° C., 10 minutes; for interruption of chain elongation after incorporation: with dGTP and dTTP (solution 2P), FIG. 4
# T1 construct: purchased Amersham Life Science
# T1 sequence (P00582 324-928 D355A/E357A): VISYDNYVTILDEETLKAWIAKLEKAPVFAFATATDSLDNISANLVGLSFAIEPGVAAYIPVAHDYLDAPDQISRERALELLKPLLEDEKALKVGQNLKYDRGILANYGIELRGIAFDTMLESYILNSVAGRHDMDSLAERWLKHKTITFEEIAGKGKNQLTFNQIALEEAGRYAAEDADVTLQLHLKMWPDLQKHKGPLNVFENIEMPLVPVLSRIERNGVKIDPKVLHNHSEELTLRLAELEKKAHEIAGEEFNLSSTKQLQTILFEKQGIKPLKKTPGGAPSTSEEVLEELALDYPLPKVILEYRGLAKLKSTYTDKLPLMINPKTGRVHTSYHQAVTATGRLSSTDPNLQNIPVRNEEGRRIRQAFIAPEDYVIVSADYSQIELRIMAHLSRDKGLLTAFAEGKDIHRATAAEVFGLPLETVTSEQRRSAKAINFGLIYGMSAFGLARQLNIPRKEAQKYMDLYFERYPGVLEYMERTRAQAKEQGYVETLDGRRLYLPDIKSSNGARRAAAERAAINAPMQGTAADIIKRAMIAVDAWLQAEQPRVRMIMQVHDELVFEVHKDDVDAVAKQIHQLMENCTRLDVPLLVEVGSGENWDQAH
# Method: (§1) Use of morpholino A putrescine (MATPP) and morpholino A fluorescein (MATPPF) for the template-dependent 3′ labelling of DNA fragments; test of enzymatic incorporation of these compounds by three polymerases (Taq, Klenow, Klenow Exo Free) and a reverse transcriptase.
# (§2) These two nucleoside triphosphate derivatives are tested in enzymatic incorporation to label an oligonucleotide 13 bases long at its 3′ end. This labelling is referred to as “template-dependent” since the enzymes used need the complementary strand to extend the oligonucleotide according to the Watson & Crick rules. Sequence A (17870 pmol/mL) studied and also its complementary target C (16128 pmol/mL) are given in the figure below: • Target C: 3′-TGCCAACCAACCCCACCTCAACCTCTG-5′ (SEQ ID NO: 7) • Primer A: 5′-ACG GTT GGT TGG G (13 bp) (SEQ ID NO: 8) • Expected fragments: 5′-ACG GTT TGG GGT GGA (18 bp) (SEQ ID NO: 9) • and lengths (bp): 5′-ACGGTTGGTTGGGGTGGAGTTGGA (24 bp)(SEQ ID NO: 10) 5′-ACGGTTGGTTGGGGTGGAGTTGGAGA (26 bp) (SEQ ID NO: 11) 5′-ACGGTTGGTTGGGGTGGAGTTGGAGAC (27 bp) (SEQ ID NO: 12)
# (§3) Three enzymes are used for this labelling: Taq DNA polymerase (Boehringer Mannheim), the Klenow fragment (Boehringer Mannheim) and the Klenow exonuclease-free polymerase (Amersham Life Science). The primer is labelled at its 5′ end by incorporation of ^32P phosphate with the “Ready to go” T4 Polynucleotide Kinase kit (Pharmacia Biotech). The radiolabelled primer is noted A*.
# (§4) The reaction buffers for the three enzymes are prepared for 10 reactions:
# (§5) The enzymes are then diluted in the following manner, for 10 reactions: • Taq (5U/μL): 10×0.1 μL of Taq+10×15.5 μL of H2O • Klenow (20U/μL): 10×0.1 μL of Klenow+10×15.5 μL of H2O • Klenow Exo Free (5U/μL): 10×0.1 μL of Klenow Exo Free+10×15.5 μL of H2O.
# (§6) Solutions containing the normal nucleoside triphosphates are also prepared: • Solution “2P” composed of a mixture of dGTP and dTTP each at 0.1 mM • Solution “4P” composed of a mixture of dATP, dCTP, dGTP and dTTP each at 0.1 mM
# (§7) The implementation reactions are described in Table 14 below:
# (§8) The morpholino A putrescine is thus tested at three concentrations: 400, 200 and 50 μM, while the morpholino A fluorescein is reacted at 2.5 mM, 400, 200 and 50 μM.
# (§9) Before adding the enzyme, the mixture is denatured at 94° C. for 5 minutes. It is then left to return to ambient temperature in order for the hybridization to take place. The elongation is carried out at 70° C. for the Taq and at 37° C. for the two Klenow fragments, and for 10 minutes. Finally, the medium is again denatured with a formamide solution and heating at 90° C. for 5 minutes, after which it is placed on a polyacrylamide gel. The separation is carried out by electrophoresis at 2000 V. The gel is read using a Phosphorimager; the results obtained are given in FIG. 4.
# (§10) In this figure, the lanes 1 serve as migration control for the labelled oligonucleotide A. This oligonucleotide has a length of 13 bases (13-mer). Lanes 2, 3 and 4 allow the elongation of the oligonucleotide A and the incorporation of the morpholino A putrescine to be monitored. Under these conditions, only the nucleotides dGTP and dTTP (solution “2P”) were added and can be used by the enzyme to carry out the extention of the primer. The presence of the morpholino A putrescine in the reaction medium allows its incorporation at the level of base 18. A control was carried out, placing in the medium only the “2P” mixture; in this case, the enzyme continues its extension up to the 17th base since it has no adenosine derivative to continue its polymerization. […] Reactions 5 to 8 correspond to the same reactions with morpholino A fluorescein. […] It is noted, however, for the two Klenow fragments, that there was occasionally incorporation of another base (G or T) in place of the morpholino derivative. Specifically, in these cases, elongation products corresponding to the 18-mer and 24-mer are found. […]
# Klenow fragment = biological target: T2, Klenow fragment (Escherichia coli, UniProt P00582); experiment: as above; details: for enzymatic incorporation at 3' end of primer A: MATPP 400, 200, 50 μM, MATPPF 2.5 mM, 400, 200, 50 μM, 37° C., 10 minutes; for interruption of chain elongation after incorporation: with dGTP and dTTP (solution 2P), FIG. 4
# T2 construct: the Klenow fragment (Boehringer Mannheim); purchased Boehringer Mannheim
# T2 sequence (P00582 324-928): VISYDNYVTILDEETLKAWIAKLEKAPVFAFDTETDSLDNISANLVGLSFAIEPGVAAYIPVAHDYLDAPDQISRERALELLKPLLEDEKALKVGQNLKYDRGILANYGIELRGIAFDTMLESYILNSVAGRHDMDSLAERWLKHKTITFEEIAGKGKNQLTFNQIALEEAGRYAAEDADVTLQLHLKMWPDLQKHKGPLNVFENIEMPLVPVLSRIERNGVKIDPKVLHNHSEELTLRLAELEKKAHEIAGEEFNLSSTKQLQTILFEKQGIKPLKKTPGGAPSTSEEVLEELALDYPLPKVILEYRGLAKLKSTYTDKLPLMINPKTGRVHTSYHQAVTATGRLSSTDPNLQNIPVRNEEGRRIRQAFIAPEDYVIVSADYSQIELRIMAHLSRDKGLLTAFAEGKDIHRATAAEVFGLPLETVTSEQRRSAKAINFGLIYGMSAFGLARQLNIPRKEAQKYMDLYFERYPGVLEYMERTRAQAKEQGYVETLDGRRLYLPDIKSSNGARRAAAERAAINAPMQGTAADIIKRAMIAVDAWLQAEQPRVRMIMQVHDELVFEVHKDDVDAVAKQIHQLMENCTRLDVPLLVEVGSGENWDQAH
# Method: as §1, §2, §3, §4, §5, §6, §7, §8, §9, §10
# Taq DNA polymerase = biological target: T3, Taq DNA polymerase (Thermus aquaticus, UniProt P19821); experiment: as above; details: for enzymatic incorporation at 3' end of primer A: MATPP 400, 200, 50 μM, MATPPF 2.5 mM, 400, 200, 50 μM, 70° C., 10 minutes; for interruption of chain elongation after incorporation: with dGTP and dTTP (solution 2P), FIG. 4
# T3 construct: purchased Boehringer Mannheim
# T3 sequence (P19821 whole entry): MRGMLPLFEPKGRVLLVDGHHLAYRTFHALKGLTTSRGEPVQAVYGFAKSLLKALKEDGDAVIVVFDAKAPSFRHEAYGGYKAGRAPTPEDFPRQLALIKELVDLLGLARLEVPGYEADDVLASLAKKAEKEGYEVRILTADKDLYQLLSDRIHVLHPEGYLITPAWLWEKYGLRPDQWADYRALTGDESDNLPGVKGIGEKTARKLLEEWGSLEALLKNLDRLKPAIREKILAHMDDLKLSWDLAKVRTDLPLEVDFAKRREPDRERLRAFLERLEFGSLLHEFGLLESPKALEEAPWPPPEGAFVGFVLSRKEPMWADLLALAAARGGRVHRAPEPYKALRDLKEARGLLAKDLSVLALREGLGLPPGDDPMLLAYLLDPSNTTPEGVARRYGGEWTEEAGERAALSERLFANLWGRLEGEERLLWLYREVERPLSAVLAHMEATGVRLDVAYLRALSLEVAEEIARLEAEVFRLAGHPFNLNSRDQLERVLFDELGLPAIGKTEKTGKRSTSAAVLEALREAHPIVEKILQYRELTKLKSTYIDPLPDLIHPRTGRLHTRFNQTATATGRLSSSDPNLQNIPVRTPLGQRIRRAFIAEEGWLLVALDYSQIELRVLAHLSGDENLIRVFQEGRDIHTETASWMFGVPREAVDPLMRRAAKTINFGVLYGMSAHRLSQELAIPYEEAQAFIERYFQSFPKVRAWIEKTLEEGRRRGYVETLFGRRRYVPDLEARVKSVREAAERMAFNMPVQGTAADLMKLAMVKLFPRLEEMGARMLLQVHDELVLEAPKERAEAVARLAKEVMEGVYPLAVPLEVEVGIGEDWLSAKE
# Method: as §1, §2, §3, §4, §5, §6, §7, §8, §9, §10
# Taq polymerase = biological target: T4, Taq polymerase (Thermus aquaticus, UniProt P19821); experiment: Sequencing reaction with fluorescent primers on Bluescript plasmid DNA (Example 13); details: 200 and 500 μM; Bluescript plasmid template; FIG. 1
# T4 construct: purchased Perkin-Elmer
# T4 sequence (P19821 whole entry): as above
# Method: The morpholino T glycine 4 of Example 2 is tested in sequence reaction with fluorescent primers (Applied Biosystems, Perkin-Elmer, Foster City, Calif., USA) on a standard template which is a Bluescript plasmid DNA (Stratagene, La Jolla, Calif., USA). The enzyme used is a Taq polymerase (Perkin-Elmer), which is used in its buffer (TACS buffer, Perkin-Elmer).
# Two reactions are carried out with morpholino T glycine at 200 and 500 μM (Table 4), and also two control reactions (Table 5) with dideoxynucleotide T (Boehringer).
# The reaction medium, of a total volume of 10 μL, contains 125 ng of template, 1.25 pmol of fluorescent primer and the other constituents given in Tables 4 and 5. The medium is subjected to heat cycles in order to produce in number molecules of newly formed DNA strands. […]
# The products of the sequencing reactions are detected by fluorescence. The results obtained are represented in the attached figure which illustrates the detection of the products in the sequencing gel analysed by the Perkin-Elmer Analysis software, version 3.0.
# For each test, the primers are identifiable by their fluorescence properties, the ROX label (red) for the control reaction 250 μm dideoxythymidine triphosphate (dashed-curve) and the label JOE (green) for the reaction concerning the 200 μm morpholino T glycine (solid-line curve).
# Taq polyerase = biological target: T5, Taq polyerase (Thermus aquaticus, UniProt P19821); experiment: Sequencing reaction with fluorescent primers on Bluescript plasmid DNA (Example 14); details: fluorescence detection of the sequencing products
# T5 construct: purchased Perkin-Elmer
# T5 sequence (P19821 whole entry): as above
# Method: Morpholino A putrescine (MATPP) 7 and morpholino A fluorescein (MATPPF) 12 are tested in squencing reaction with fluorescent primers (Applied Biosystems, Perkin-Elmer, Foster City, Calif., USA) on a standard template which is a Bluescript plasmid DNA (Stratagene, La Jolla, Calif., USA). The enzyme used is a Taq polyerase (Perkin-Elmer) which is used in its buffer (Thermo Sequenase buffer, Amersham Life Science).
# Three sequencing reactions are carried out with MATPP at 100, 200 and 400 μM and four sequencing reactions are carried out with MATPPF at 200, 500, 1000 and 5000 μM, along with control reactions with the dideoxynucleotide ddATP at a concentration of 250 μM (Boehringer).
# The reaction medium, of a total volume of 10 μL, contains 125 ng of template, 1.25 pmol of fluorescent primer and the other constituents as described in the tables.
# The medium is subjected to heating cycles in order to produce in number molecules of newly formed DNA strands. […]
# The amplification products are purified on a Sephadex G50 column. The products of each sequencing reaction are mixed with the products of a control reaction and analysed by electrophoresis. […]
Compound,enzymatic incorporation at 3' end of primer A [1],interruption of chain elongation after incorporation [1],enzymatic incorporation at 3' end of primer A (Klenow fragment),interruption of chain elongation after incorporation (Klenow fragment),enzymatic incorporation at 3' end of primer A (Taq DNA polymerase),interruption of chain elongation after incorporation (Taq DNA polymerase),action as chain terminator in sequencing reaction (Taq polymerase),incorporation by the Taq polymerase in sequencing reaction (Taq polymerase),detection of sequencing reaction products (Taq polyerase)
4-(aminobutyl)-2-(adenosin-9-yl)-6-(hydroxymethyl)morpholine 6-triphosphate [morpholino A putrescine],incorporate,interruption of the elongation of the chain,incorporate,interruption of the elongation of the chain,incorporate,interruption of the elongation of the chain,,,
4-(carboxymethyl)-2-(thymidin-1-yl)-6-(hydroxymethyl)morpholine 6-triphosphate [morpholino T glycine],,,,,,,acts correctly as a chain terminator,correctly incorporated in a base-specific manner,
Nc1ncnc2c1ncn2C1CN(CCCCNC(=S)Nc2ccc3c(c2)C(=O)OC32c3ccc(O)cc3Oc3cc(O)ccc32)CC(COP(=O)(O)OP(=O)(O)OP(=O)(O)O)O1 (stereo not drawn) [morpholino A fluorescein],incorporate,stops the polymerization of the complementary strand,incorporate,stops the polymerization of the complementary strand,incorporate,stops the polymerization of the complementary strand,,,detected by means of the fluorophore borne by this derivative
